Source: patent US20180179524A1, “COMPOSITIONS AND METHODS FOR INHIBITING CELL PROLIFERATION” (President and Fellows of Harvard College, priority 2015, published 2018)

How the values were obtained:
Tsc2−/− MEFs = assay: Proliferation of Tsc2-/- MEFs relative to Tsc2+/+ MEFs treated with compounds (FIG. 9); format: cell-based; conditions: for cytotoxic effect on Tsc2−/− cells / selective effects on cell viability in Tsc2−/− cells compared with rapamycin: JWD07 5 μM, AT7915 2 μM; for cytotoxic effect on Tsc2−/− cells: Mizoribine 2.5 μM; for selective effects on cell viability in Tsc2−/− cells compared with rapamycin: Mizoribine 2.5 μM vs Rapamycin 20 nM
Procedure: FIG. 9 is a series of panels, panels A-E showing TSC2 loss confers sensitivity to CCNT1, RNGTT, or CDK11 loss of function. Panel A is a schematic of the methods disclosed herein. […] Panel B represents data corresponding to the CDK9/CDK11 inhibitor JWD07 (5 μM). Panel C represents data corresponding to the CDK2/CDK9/CDK11 inhibitor AT7915 (2 μM). Panel D represents data corresponding to the RNGTT/IMPDH inhibitor Mizoribine (2.5 μM). Panel E represents data corresponding to the mTORC1 inhibitor Rapamycin (20 nM).

[1] = tested on: luciferase-based reporter constructs in S2R+ cells; assay: Luciferase-based mutation reporter assay (sgRNA mutation efficiency); format: cell-based, Drosophila; conditions: sgRNAs with no mismatches targeting luciferase-based reporter in S2R+ cells; mutation rate = 1/Firefly luciferase normalized to Renilla
Procedure: The luciferase reporter vector was constructed by PCR amplifying the metallothionein promoter from pMK33 and luciferase gene from pGL3 (Table 1) and combining these with annealed oligos containing a gRNA target site (Table 1 and Table 2) and a custom made cloning vector using Golden Gate assembly.
Luciferase assays were performed by transfecting S2R+ cells with the relevant pl018 plasmid, luciferase reporter and pRL-TK (Promega) (to allow normalization of transfection efficiencies between samples) in 96 well plates using Effectene Transfection Reagent (Qiagen) according to the manufacturer's recommendations. Twenty-four hours after transfection, CuSO4 was added to the cell media at a final concentration of 140 μM and cells were incubated for a further 16 hours.
Firefly and Renilla luciferase readings were taken using the Dual-Glo Luciferase Assay System (Promega) according to manufacturer's instructions and a SpectraMax Paradigm Multi-Mode Microplate Detection Platform (Molecular Devices).
Because the rate of mutations varies widely between different sgRNAs (25-27), whether efficiency could be predicted based on the sgRNA sequence was tested. 75 additional sgRNAs were generated, each targeting luciferase-based reporter constructs with no mismatches and tested mutation efficiency for each. Using this panel of sgRNAs and associated efficiencies, the presence or absence of a correlation between GC content and mutation rate was examined. […] Next, whether a more general sequence-based approach was tested for its ability to improve efficiency prediction. The nucleotide content of all 75 sgRNAs was examined, considering each position separately and generated a probability matrix linking nucleotide content with mutation rate (FIG. 1, panel B). This was then used to generate predicted efficiency scores based on sgRNA sequence. […] Note that sgRNAs targeting close to the 3′ end of genes or with apparent viability effects were not included in this analysis. Finally, predicted scores were generated for all sgRNA target sites in the Drosophila genome and annotated.

Compound | proliferation of Tsc2−/− MEFs relative to Tsc2+/+ MEFs (Tsc2−/− MEFs; 2.5 μM, FIG. 9 panel D) | cytotoxic effect on Tsc2−/− cells (Tsc2−/− MEFs) | selective effects on cell viability in Tsc2−/− cells compared with rapamycin (Tsc2−/− MEFs) | proliferation of Tsc2−/− MEFs relative to Tsc2+/+ MEFs (Tsc2−/− MEFs; 2 μM, FIG. 9 panel C) | Mean efficiency [1]
NC(=O)c1ncn([C@@H]2O[C@H](CO)[C@@H](O)[C@H]2O)c1O [Mizoribine] | selectively reduce proliferation | exert a cytotoxic effect | superior to rapamycin |  | 
O=C(NC1CCNCC1)c1n[nH]cc1NC(=O)c1c(Cl)cccc1Cl [AT7915] |  | exert a cytotoxic effect | superior to rapamycin | selectively reduce proliferation | 
TCGTACCGCACCGGTATTTT: sgRNA targeting a luciferase-based reporter construct, no mismatches (chemistry not given here) |  |  |  |  | 0.1565
AAACAGAAGGTCTTCCCCAA: sgRNA targeting a luciferase-based reporter construct, no mismatches (chemistry not given here) |  |  |  |  | 0.3046
